Drawing on ChEMBL document CHEMBL5053510, “Discovery of AS-1763: A Potent, Selective, Noncovalent, and Orally Available Inhibitor of Bruton's Tyrosine Kinase” (J Med Chem, 2021), this text covers IC50 for twelve compounds.

The target in experiment [1] is Tyrosine-protein kinase BTK (Homo sapiens, UniProt Q06187). Description: Inhibition of human BTK-A using phosphorylated substrate in presence of ATP by microplate reader assay.
Experiment [2] deals with OCI-Ly10. The experiment is described as follows: Antiproliferative activity against human OCILY10 cells assessed as reduction in cell proliferation measured after 96 hrs. In kind it is functional, cell-based. As to conditions: OCI-Ly10, 96 h.
Experiment [3] has as its system OCI-Ly10. The experiment is described as follows: Antiproliferative activity against human OCILY10 cells harboring BTK C481S mutant […] gene assessed as reduction in cell viability after 96 hrs. The class given is functional, cell-based. As to conditions: OCI-Ly10, 96 h.

Tyrosine-protein kinase BTK, sequence (Q06187 whole entry): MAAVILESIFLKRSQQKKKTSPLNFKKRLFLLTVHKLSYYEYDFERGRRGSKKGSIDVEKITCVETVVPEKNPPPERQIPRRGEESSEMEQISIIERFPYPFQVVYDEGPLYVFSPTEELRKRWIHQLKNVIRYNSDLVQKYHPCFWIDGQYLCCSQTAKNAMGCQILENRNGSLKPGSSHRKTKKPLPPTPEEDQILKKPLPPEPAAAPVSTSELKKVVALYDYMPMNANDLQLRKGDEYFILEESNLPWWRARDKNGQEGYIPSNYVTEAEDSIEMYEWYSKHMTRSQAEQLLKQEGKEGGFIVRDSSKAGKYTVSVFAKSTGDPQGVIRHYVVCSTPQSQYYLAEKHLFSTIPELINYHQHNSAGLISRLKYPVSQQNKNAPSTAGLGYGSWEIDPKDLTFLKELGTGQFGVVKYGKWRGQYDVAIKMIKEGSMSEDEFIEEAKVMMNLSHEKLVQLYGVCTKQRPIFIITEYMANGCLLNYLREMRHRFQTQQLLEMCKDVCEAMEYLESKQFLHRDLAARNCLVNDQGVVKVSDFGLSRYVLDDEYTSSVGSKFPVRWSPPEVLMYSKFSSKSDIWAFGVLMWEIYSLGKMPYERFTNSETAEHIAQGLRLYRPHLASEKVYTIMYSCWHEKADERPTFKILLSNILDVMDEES

What is called IC50 is the midpoint of a concentration-inhibition curve. In the case of `Nc1nc(-c2cccc(-n3ccc4cc(C5CC5)cc(F)c4c3=O)c2CO)c2cc(C3=CCN(C(=O)CN4CCOCC4)CC3)[nH]c2n1`, the IC50 in experiment [1] amounted to 0.69 nM; with OCI-Ly10 [2] it was 13 nM.

For the compound `CN(C)C(=O)N1CC=C(c2cc3c(-c4cccc(-n5ccc6cc(C7CC7)cc(F)c6c5=O)c4CO)nc(N)nc3[nH]2)CC1`, the IC50 in experiment [1] turned out to be 0.54 nM.

For the compound `Nc1nc(-c2cccc(-n3ccc4cc(C5CC5)cc(F)c4c3=O)c2CO)c2cc(C3=CCCCC3)[nH]c2n1`, the IC50 in experiment [1] came out at 2.6 nM.

Take `CN1CCN(C(=O)N2CC=C(c3cc4c(-c5cccc(-n6ccc7cc(C8CC8)cc(F)c7c6=O)c5CO)nc(N)nc4[nH]3)CC2)CC1`: the IC50 in experiment [1] amounted to 0.65 nM.

As to `CC(=O)N1CC=C(c2cc3c(-c4cccc(-n5ccc6cc(C7CC7)cc(F)c6c5=O)c4CO)nc(N)nc3[nH]2)CC1`, the IC50 in experiment [1] stood at 0.71 nM.

Take `Nc1nc(-c2cccc(-n3ccc4cc(C5CC5)cc(F)c4c3=O)c2CO)c2cc(-c3ccccc3)[nH]c2n1`: the IC50 in experiment [1] was found to be 14 nM.

Turning to `Nc1nc(-c2cccc(-n3ccc4cc(C5CC5)cc(F)c4c3=O)c2CO)c2cc[nH]c2n1`, the IC50 in experiment [1] amounted to 51 nM.

With `Nc1nc(-c2cccc(-n3ccc4cc(C5CC5)cc(F)c4c3=O)c2CO)c2cc(C3=CCNCC3)[nH]c2n1`, in experiment [1], the IC50 was determined as 0.65 nM.

Turning to `Cc1cc2c(-c3cccc(-n4ccc5cc(C6CC6)cc(F)c5c4=O)c3CO)nc(N)nc2[nH]1`, in experiment [1], the IC50 turned out to be 49 nM.

As for `C=CC(=O)N1CCC[C@@H](n2nc(-c3ccc(Oc4ccccc4)cc3)c3c(N)ncnc32)C1` [IBRUTINIB], in the experiment with OCI-Ly10 [3], the IC50 turned out to be 1030 nM.

Consider `Nc1nc(-c2cccc(-n3ccc4cc(C5CC5)cc(F)c4c3=O)c2CO)c2cc(-c3ccncc3)[nH]c2n1`, for which the half-inhibitory concentration (IC50) in experiment [1] is 0.14 nM.

For `Nc1nc(-c2cccc(-n3ccc4cc(C5CC5)cc(F)c4c3=O)c2CO)c2cc(-c3cccnc3)[nH]c2n1`, in experiment [1], the IC50 is 2.1 nM.
